Test results from US5843916A, “Cyclic amp analogues, individually and in pairs, to inhibit neoplastic cell growth” (priority 1994, dated 1998).

Key:
[1] = system: MCF-7; assay: Cell cycle analysis by flow cytometry (Table 3); type: cell-based, human; conditions: 10 μM; 3 days
Method: DNA histograms were generated on FACS II by using the DNA intercalating dye propidium iodide as described by Braylan et al. in Cytometry 2: 337-343, 1982. The percentage of cells in each cycle phase was calculated by using a PDP-11/34 computer and software as described by Neckers et al., Mol. Cell. Biol. 6: 4244-4250, 1986.
Breast (MCF-7, MDA-MB-231) and colon (LS-174T) cancer cells in log
phase (untreated control) and 3 days after treatment with 8-C1-cAMP
(10 μM), N^6 -benzyl-cAMP (35 μM), and 8-Cl-adenosine (5
were analyzed for DNA content by flow cytometric analysis as described
below. Similar results were obtained with other breast and colon cancer

[2] = system: MCF-7ras breast cancer cell line; assay: Synergistic growth inhibition by analogue combinations (Table 2); type: cell-based, human; conditions: footnote of Table 2
Method: All breast cancer cell lines were grown in IMEM supplemented with 10% fetal bovine serum, HEPES 20 mM, penicillin-streptomycin, and extra glutamine. Colon carcinoma cell lines were grown in EMEM supplemented with 10% FBS, EMEM, NEAA, HEPES 20 mM, extra glutamine, and penicillin-streptomycin. The cells were grown at 37° C. in humidified incubators in an atmosphere of 5% CO2.
For cell growth experiments, 2-3×10^5 cells/60 mm dish were seeded, and 24 hours later (Day 0), the medium was removed, and fresh medium and the additives were added then and every 48 hours thereafter. The compounds of the present invention were added using 100X concentrated stock solutions. At desired times, cell counts in duplicate were performed on a Coulter counter after harvesting the cells with gentle trypsinization.
Synergism quotient was defined as the net growth inhibitory effect of the analogue combination divided by the sum of the net analogue effects on growth inhibition. A quotient of >1 indicates a synergistic effect, while a quotient of <1 indicates an antagonistic effect.
Synergism of growth inhibition was determined by
treatment of cells with C-6 analogues and C-8 analogues alone
and in combination at Day 0 and Day 2 and counting the cell
^a Data are expressed as percentage growth inhibition in reference to
the growth of untreated control cells and represent average values and
ranges (in parentheses) of duplicate cell counts on three or more separat
experiments. The values for percentage growth inhibition of each analogue
^b The synergism quotient was defined as previously described.

[3] = system: RIα and RIIβ isoforms of the cAMP receptor protein; protein kinase type I and II; conditions: cited from earlier work
[4] = target: T1, Protein kinase type I (cAKI) (Oryctolagus cuniculus, UniProt G1TDN4); assay: Protein kinase activation (Table 15); type: biochemical, rabbit (skeletal muscle); conditions: half-maximum activation; U. M.: unmeasurable
T1 construct: prepared from rabbit skeletal muscle and bovine heart; from tissue; host or cells: rabbit skeletal muscle
T1 sequence (G1TDN4 1-381): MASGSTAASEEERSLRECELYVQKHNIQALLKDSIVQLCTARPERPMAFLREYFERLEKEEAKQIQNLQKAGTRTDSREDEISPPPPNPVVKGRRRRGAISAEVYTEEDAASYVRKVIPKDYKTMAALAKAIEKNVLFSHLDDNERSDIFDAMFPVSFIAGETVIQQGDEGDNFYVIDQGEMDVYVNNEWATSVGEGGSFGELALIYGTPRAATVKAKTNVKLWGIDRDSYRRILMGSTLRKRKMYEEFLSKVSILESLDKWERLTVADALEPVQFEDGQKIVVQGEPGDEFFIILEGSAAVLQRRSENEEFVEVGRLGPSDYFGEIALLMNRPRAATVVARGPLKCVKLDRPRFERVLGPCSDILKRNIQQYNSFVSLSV
Method: ATP to Kemptide as described by Ogreid et al., Eur. J. Biochem. 150: 219-227 (1985).
Protein kinases types I (cAKI) and II (cAKII) were
prepared from rabbit skeletal muscle and bovine heart,
respectively, as described in D.o slashed.skeland et al. (J. Biol.
of the protein kinase in Ogreid et al. (Eur. J. Biochem.

[5] = no test described at this place

With `Nc1ncnc2c1nc(Cl)n2[C@@H]1O[C@@H]2COP(=O)(O)O[C@H]2[C@H]1O` [8-Cl-cAMP, 8-chloro-adenosine 3': 5'-monophosphate] the “% Cell Population in G1” value [1] was 53%, the “% Cell Population in G2M” value [1] was 25% and the “% Cell Population in S” value [1] was 22%. For the same compound, the “cell cycle phase distribution” value [1] was “not appreciably different”, the “percentage growth inhibition of each analogue when added alone” value [2] was 20% and the “effect on protein kinase isozyme type I” value ([3]; literature) was “drastically downregulates type I protein kinase”. The “effect on protein kinase isozyme type II” value ([3]; literature) was “upregulating type II protein kinase in its holoenzyme form”, the “effect on RIIβ isoform” value [3, 5] was “upregulates the RII β, isoform” and the “effect on RIα isoform” value [3, 5] was “downregulates the RIα isoform”. The “Activation Constant (Ka), cAKI” value [4] was 1.8 × 10^-8.
